Assay results as given in patent US8329645B2, “Polymyxin derivatives and uses thereof” (priority 2008, dated 2012).
Where a SMILES comes first, the peptide text is derived from it. Bridges are numbered along the chain shown (N, C = ends). [ ]: non-standard residue; d: D form. The star is where a group is joined. Decanoyl = CCCCCCCCCC(=O)*; Octanoyl = CCCCCCCC(=O)*; Dab = NCC[C@H](N)C(=O)O; Abu = CC[C@H](N)C(=O)O

Experiments:
E. coli ATCC25922 = assay: Growth inhibition around wells on LB agar plates; type: cell-based, Escherichia coli
Method: (§1) From an overnight-grown culture of IH3080 on LB agar, a suspension of approx. 10^8 cells/ml was prepared in 0.9% NaCl. Aliquots of this suspension were then pipetted on the agar plates and the plates were gently shaken to spread the suspension evenly on the entire surface of the plate. Thereafter, the unabsorbed part of the suspension was removed by using a Pasteur pipette. After the surface had dried, small wells (diameter, 2 mm) were drilled on the plates (five wells per plate) by using a sterile sharp-edged narrow metal tube, single-use pipette tip, and vacuum suction. An alternative method used a swab to spread the inoculum. Samples (4 μl and 10 μl) of the peptide solution in 0.9% NaCl (at concentrations of 1 μg/ml and 0.1 μg/ml) were then pipetted to the wells and the sample fluids were allowed to absorb. Controls included 0.9% NaCl solution without the compound to be tested. The plates were then incubated for 18 h at 37° C. whereafter the diameters of growth inhibition zones around each well were measured; the diameter of the well itself was not reduced. Finally, the diameters were converted to surface areas of growth inhibition (in square mm).
(§2) The susceptibility of eleven Gram-negative bacterial strains (nine different species) to NAB734 and polymyxin B was compared by using the susceptibility determination method described in Example 2. The strains included those belonging to the species of Serratia marcescens and Proteus mirabilis, both species generally known to be resistant to polymyxin. Furthermore, the susceptibility determination was also performed by using the Gram-positive bacterium, Staphylococcus aureus, also generally known to be polymyxin-resistant. Ten of the strains originated from ATCC (American Type Culture Collection, Manassas, Va., U.S.A.), and one from CCUG (Culture Collection of University of Gothenburg, Sweden). The source of E. coli IH3080 has been described in Example 2. Polymyxin B sulfate was from Sigma-Aldrich (St. Louis, Mo., USA).

K. oxytoca ATCC13182 = assay: Growth inhibition around wells on LB agar plates; type: cell-based, Klebsiella oxytoca; conditions: 4 μg
Method: as §1, §2

S. aureus ATCC 25923 = assay: Growth inhibition around wells on LB agar plates; type: cell-based, Staphylococcus aureus
Method: as §1, §2

S. marcescens ATCC8100 = assay: Growth inhibition around wells on LB agar plates; type: cell-based, Serratia marcescens
Method: as §1, §2

[1] = Two-week intravenous toxicity study in young rats; type: in vivo; conditions: for lowest dose that negatively influenced the body weight gain: intravenously twice a day for two weeks
Method: Toxicity in young rats (weighing approx. 150 g in the beginning of the study) was determined by administering doses (1, 2, 4, 8, 16, and 32 mg/kg per day) of NAB7061 as well as the control compound polymyxin B intravenously twice (2) a day for two weeks. A group of ten (10) rats was studied for each dosage regimen. Clinical observations were made daily, the body weight measured twice weekly, and the food consumption twice weekly. In the end of week 2, all animals were sacrificed.
Histopathology of kidneys was performed for each animals and histopathology of all tissues was performed in three high-dose groups receiving NAB7061.

C. freundii ATCC8090 = assay: Growth inhibition around wells on LB agar plates; type: cell-based, Citrobacter freundii
Method: as §1, §2

E. coli strains = type: cell-based, Escherichia coli
Method: Polymyxin B sulfate (Sigma-Aldrich, St. Louis, Mo., USA) was used as a control. […] Fourteen (14) strains (the F-strains) were purchased from Mobidiag Ltd., Helsinki, Finland. Besides bacteria, the MIC was also determined for the yeast Candida albicans (ATCC 28366 from ATCC). The inocula were prepared by adjusting the bacterial suspensions to a density equivalent to OD546 nm˜0.3 (˜10^8 CFU/ml˜0.5 McFarland) the yeast suspension to a density equivalent to OD546 nm˜0.75 (˜2×10^7 CFU/ml)._The suspensions were diluted to 10^7 CFU/ml. The plates were inoculated by using a Denley Multipoint Inoculator, 1 μl per spot corresponding to approx. 10^4 CFU/spot. Plates were incubated for 16-20 hours at 35° C. […] Both agents had good activity also against other polymyxin-susceptible strains of Enterobacteriaceae. […] S. aureus and C. albicans were resistant to the NAB peptides.

E. coli IH3080 = assay: Bactericidal activity in PBS (% survival); type: cell-based, Escherichia coli; conditions: solution age fresh
Method: For the measurement of the antibacterial activity of aqueous solutions of NAB 739 methanesulfonate sodium, three different solutions were made: 1) A solution (1 mg/ml) made in 0.9% NaCl immediately prior to the experiment, 2) a solution (1 mg/ml) made in 0.9% NaCl 24 h prior to the experiment and kept at 37° C., 3) a solution (1 mg/ml) made in 0.9% NaCl 48 h prior to the experiment and kept at 37° C. A freshly made solution of NAB 739 acetate served as the control compound.
The test bacterium was E. coli IH3080. It was grown in LB broth (LB broth Lennox, Difco, BD, Sparks, Md., U.S.A.) at 37 Celsius in a rotary shaker into early logarithmic growth phase, washed with PBS, and resuspended in PBS to approx. 10e9 cells/ml. PBS was inoculated with approx. 500 CFU (colony forming units) of bacteria per ml and pipetted in 0.2 ml aliquots into wells of a microtiter plate. The plates already contained increasing concentrations of NAB 739 methanesulfonate or the control compound in 0.020 ml of 0.9% NaCl. […] The plate was incubated overnight at 37° C. and the developed colonies were counted.

in vivo = conditions: male, Sprague-Dawley, rat, iv, 1 mg/kg
Method: Each rat (n=5, Sprague-Dawley, male) was anaesthetized using isoflurane, and a polyethylene cannula was inserted into the jugular vein. Each rat was placed into a metabolic cage and allowed to recover from the procedure overnight. […] When collecting samples, the first 100 μl of blood was withdrawn and kept in the syringe. After collecting the actual sample with another syringe, the content of the first syringe was returned to the rat together with 400 μl of heparinized saline. Blood samples were centrifuged to obtain plasma. […] Plasma and urine samples were stored at −80° C.
To a 100-μl sample, 100 μl of acetonitrile was added, the mixture was vortex-mixed for 1 min, and centrifuged at 10,000 g for 10 min. The supernatant was transferred to an SPE C18 cartridge (Sep-Pak, Waters, Mass. USA) for derivatization with 9-fluorenylmethyl chloroformate. […] The chromatography employed the HPLC C18 column (50×4.6 mm), the mobile phase of acetonitrile/tetrahydrofuran/water (60:15:30, v/v), the flow rate of 1.0 ml/min, and the detection at an excitation wavelength of 260 nm and an emission wavelength of 315 nm.

## Polymyxin B [reference compound]
E. coli ATCC25922; 4 μg
  growth inhibition around a well: 95 square millimeters
E. coli ATCC25922; 10 μg
  growth inhibition around a well: 133 square millimeters
K. oxytoca ATCC13182
  growth inhibition around a well: 79 square millimeters
S. aureus ATCC 25923; 4 μg
  growth inhibition around a well: 0 square millimeters
S. aureus ATCC 25923; 10 μg
  growth inhibition around a well: 0 square millimeters
S. marcescens ATCC8100; 4 μg
  growth inhibition around a well: 0 square millimeters
S. marcescens ATCC8100; 10 μg
  growth inhibition around a well: 0 square millimeters
[1]; rats
  lowest dose that negatively influenced the body weight gain: 1 mg/kg per day
C. freundii ATCC8090; 4 μg
  growth inhibition around a well: 95 square millimeters
C. freundii ATCC8090; 10 μg
  growth inhibition around a well: 154 square millimeters

## CCCCCCCC(=O)N[C@H](C(=O)N[C@H](CO)C(=O)N[C@H]1CCNC(=O)[C@H]([C@@H](C)O)NC(=O)[C@H](CCN)NC(=O)[C@H](CCN)NC(=O)[C@H](CC(C)C)NC(=O)[C@@H](Cc2ccccc2)NC(=O)[C@H](CCN)NC1=O)[C@@H](C)O [NAB 739, OA-Thr-DSer-cy[Dab-Dab-DPhe-Leu-Dab-Dab-Thr-]] (Octanoyl-T[dS][Dab][Dab][dF]L[Dab][Dab]T; lactam 3-C)
E. coli strains
  MIC values, range for E. coli strains: 0.5 to 1 µg/mL
E. coli IH3080; 1 μg/ml
  % survival at 37 degrees centigrade: 21%
E. coli IH3080; 2 μg/ml
  % survival at 37 degrees centigrade: 2%
E. coli IH3080; 4 μg/ml
  % survival at 37 degrees centigrade: 0%

## CCCCCCCCCC(=O)N[C@H](C(=O)N[C@H](CO)C(=O)N[C@H]1CCNC(=O)[C@H]([C@@H](C)O)NC(=O)[C@H](CCN)NC(=O)[C@H](CCN)NC(=O)[C@H](CC(C)C)NC(=O)[C@@H](Cc2ccccc2)NC(=O)[C@H](CCN)NC1=O)[C@@H](C)O [NAB 740, DA-Thr-DSer-cy[Dab-Dab-DPhe-Leu-Dab-Dab-Thr-]] (Decanoyl-T[dS][Dab][Dab][dF]L[Dab][Dab]T; lactam 3-C)
E. coli strains
  MIC values, range for E. coli strains: 1 to 2 µg/mL

## CCCCCCCC(=O)N[C@H](C(=O)N[C@@H](CC)C(=O)N[C@H]1CCNC(=O)[C@H]([C@@H](C)O)NC(=O)[C@H](CCN)NC(=O)[C@H](CCN)NC(=O)[C@H](CC(C)C)NC(=O)[C@@H](Cc2ccccc2)NC(=O)[C@H](CCN)NC1=O)[C@@H](C)O [NAB 7061, OA-Thr-Abu-cy[Dab-Dab-DPhe-Leu-Dab-Dab-Thr-]] (Octanoyl-T[Abu][Dab][Dab][dF]L[Dab][Dab]T; lactam 3-C)
[1]; 16 mg/kg per day, end of the study
  rise of blood urea nitrogen (BUN) versus control or low dose group: no such a rise was found
[1]; rats
  lowest dose that negatively influenced the body weight gain: 8 mg/kg per day
[1]; rats, two weeks
  general pathology and histopathology of organs and kidneys: No NAB7061-related pathological findings were found
In vivo; plasma and urine
  CL renal: 0.28 ± 0.16 mL/min/kg
In vivo; plasma
  Vd: 0.339 ± 0.096 L/kg
  clearance: 3.84 ± 0.75 mL/min/kg
  half-life: 66.2 ± 12.3 min
In vivo; urine
  dose excreted: 7.16 ± 3.7%
